# Test results from publication PMC3856571 (Journal of the American Chemical Society, 2013).
# Numbered stars: 1 amine (or outer) side, 2 acyl side, 3 side chain; on linkers, the order of the positions; unused ones are H or OH. Bridge positions count the residues as written; N and C are the ends. Square brackets hold non-standard residues; d marks the D form. Peptide text beside a SMILES is read from it. Trimesoyl = O=C(c1cc(C(=O)[*:2])cc(C(=O)[*:3])c1)[*:1]; Phg = N[C@H](C(=O)O)c1ccccc1; Nle = CCCC[C@H](N)C(=O)O; Dap = NC[C@H](N)C(=O)O
# Assays:
# [1] = target: bovine serum albumin (BSA) (Bos taurus, UniProt P02769); experiment: Fluorescence anisotropy specificity test, BSA; type: binding
# Chain of bovine serum albumin (BSA) (P02769 25-607): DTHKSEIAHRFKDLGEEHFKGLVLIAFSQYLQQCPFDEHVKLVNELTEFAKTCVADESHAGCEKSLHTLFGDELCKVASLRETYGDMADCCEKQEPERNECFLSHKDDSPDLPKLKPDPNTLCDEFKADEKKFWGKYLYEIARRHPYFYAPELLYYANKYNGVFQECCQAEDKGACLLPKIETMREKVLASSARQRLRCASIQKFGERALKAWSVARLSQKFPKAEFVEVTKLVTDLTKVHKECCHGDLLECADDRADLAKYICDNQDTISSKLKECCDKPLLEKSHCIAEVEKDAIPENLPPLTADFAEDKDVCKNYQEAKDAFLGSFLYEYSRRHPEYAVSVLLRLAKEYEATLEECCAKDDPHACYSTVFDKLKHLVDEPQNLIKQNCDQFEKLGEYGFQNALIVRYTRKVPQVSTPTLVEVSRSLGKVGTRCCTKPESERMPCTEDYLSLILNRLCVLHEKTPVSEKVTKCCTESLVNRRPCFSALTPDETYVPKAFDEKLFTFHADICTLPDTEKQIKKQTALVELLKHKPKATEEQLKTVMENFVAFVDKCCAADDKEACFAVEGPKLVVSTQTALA
# [2] = target: glutathione-S-transferase-PLCγ SH2 domain fusion (GST-SH2); experiment: Fluorescence anisotropy specificity test, GST-SH2; type: binding; settings: FA, Fig. S4
# [3] = target: T1, protein phosphatase PTP1B (Homo sapiens, UniProt P18031); experiment: Fluorescence anisotropy specificity test, PTP1B; type: binding; settings: FA
# T1 sequence (P18031 1-435): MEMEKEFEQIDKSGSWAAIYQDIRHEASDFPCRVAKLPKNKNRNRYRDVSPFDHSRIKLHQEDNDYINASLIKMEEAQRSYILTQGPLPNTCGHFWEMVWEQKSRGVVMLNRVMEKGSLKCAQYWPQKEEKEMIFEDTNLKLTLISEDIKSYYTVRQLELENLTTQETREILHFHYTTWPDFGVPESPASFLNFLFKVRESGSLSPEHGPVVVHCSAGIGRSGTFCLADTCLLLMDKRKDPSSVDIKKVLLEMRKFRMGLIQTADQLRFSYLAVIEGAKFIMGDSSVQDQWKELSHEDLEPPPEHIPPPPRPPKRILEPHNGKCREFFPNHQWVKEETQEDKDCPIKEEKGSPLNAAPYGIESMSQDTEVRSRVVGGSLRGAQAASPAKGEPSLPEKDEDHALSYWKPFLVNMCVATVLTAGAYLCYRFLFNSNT
# [4] = target: HIV capsid protein (Human immunodeficiency virus type 1 group M subtype B, UniProt P04591); experiment: Fluorescence anisotropy specificity test, HIV capsid protein; type: binding; settings: FA
# [5] = test system: WEHI-13VAR fibroblasts; type: cell-based
# [6] = test system: GST-BRCT fusion protein; settings: FA
# [7] = target: TNFα (Homo sapiens, UniProt P01375); experiment: Fluorescence anisotropy binding of resynthesized FITC-labeled peptides; settings: resynthesized FITC-labeled peptide, FA analysis, Fig. S3
# Chain of TNFα (P01375 77-233 limits assumed): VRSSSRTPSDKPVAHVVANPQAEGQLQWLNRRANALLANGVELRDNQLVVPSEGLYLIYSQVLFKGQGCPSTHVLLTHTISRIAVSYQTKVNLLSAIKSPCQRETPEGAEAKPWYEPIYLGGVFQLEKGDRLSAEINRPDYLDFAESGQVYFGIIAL
compound,measurement,setting,value
"C[C@H]1NC(=O)[C@H](Cc2ccc(O)cc2)NC(=O)[C@H](c2ccccc2)NC(=O)c2cc3cc(c2)C(=O)NC[C@@H](C(N)=O)NC(=O)[C@H](Cc2c[nH]cn2)NC(=O)[C@@H](CCCCN)NC(=O)CNC(=O)[C@@H](Cc2ccccc2)NC(=O)[C@H](Cc2ccc(O)cc2)NC(=O)[C@H](CCCCNC3=O)NC1=O [Anticachexin C1, bicyclo(Phg-Tyr-D-Ala-Lys-Tyr-D-Phe-Gly-D-Lys-His-Dap)] ([Phg]Y[dA]KY[dF]G[dK]H[Dap]-NH2; linker N-4-10 via Trimesoyl; C-terminus assumed)",Kd,[1],~34 µM
same,KD for GST-SH2,[2],not to any of the other proteins
same,binding to PTP1B,[3],not to any of the other proteins
same,binding to HIV capsid protein,[4],not to any of the other proteins
same,LD50 of TNFα in the presence of 50 μM Anticachexin C1,"[5]; TNFα 0-250 ng/mL, fixed 50 μM Anticachexin C1, MTT, Fig. S6",1.8 ng/mL
same,protection of cells from TNFα-induced cell death,"[5]; TNFα 0.04 ng/ml, actinomycin-D, peptide 0-25 μM, MTT, Fig. 4c",protected the cells from TNFα-induced cell death in a concentration-dependent manner
same,binding to GST-BRCT fusion protein,[6],not to any of the other proteins
"CCCC[C@@H]1NC(=O)[C@@H]2CCCCNC(=O)c3cc(cc(c3)C(=O)N[C@@H](C)C(=O)N[C@H](Cc3ccccc3)C(=O)N[C@@H](Cc3c[nH]c4ccccc34)C(=O)N[C@H]([C@H](C)O)C(=O)N[C@@H](CCC(N)=O)C(=O)N2)C(=O)NC[C@@H](C(N)=O)NC(=O)[C@H](Cc2c[nH]cn2)NC(=O)[C@H](C)NC(=O)[C@@H](CC(C)C)NC1=O [Anticachexin C2, bicyclo(Ala-D-Phe-Trp-D-Thr-Gln-Lys-Nle-D-Leu-Ala-His-Dap)] (A[dF]W[dT]QK[Nle][dL]AH[Dap]-NH2; linker N-6-11 via Trimesoyl; C-terminus assumed)",Kd,[1],7.4 µM
same,Kd,[2]; read-out: KD for GST-SH2,1500 nM
Bicyclo(Arg-Arg-Arg-Arg-Nal-Phe-Dap-Ser-D-Val-Pro-pTyr-His-Dap),KD for TNFα,[7],no detectable binding
TNFα,LD50 of TNFα in the absence of TNFα inhibitor,"[5]; TNFα 0-250 ng/mL, MTT, Fig. S6",0.46 ng/mL
